Measurements from PMC11254100 (Angewandte Chemie (International ed. in English), 2024).

These substances were tested on anti-HA mAb clone 12ca5.
Type: binding

| Substance | enrichment in affinity selection |
| --- | --- |
| cyclo(GDVGPDAYDYA) | enriched |
| cyclo(GDVWALYASYA) | not enriched in the selection |
| cyclo(GDAGPYDADYA) | enriched |
